# Experimental data as given in patent publication US20130225529A1, “PHOSPHO-ESTER DERIVATIVES AND USES THEREOF” (priority 2012, published 2013).
# How the values were obtained:
# [1] = PK study of topical PSG versus oral PS; details: mouse, skin, topical or ocular
# [2] = system: U87 cells; assay: 24-h growth inhibition of U87 glioblastoma cells; type: cell-based; details: Homo sapiens, U-87 MG; U87, 24 h
# Description: U87 cells were treated with sulindac and ibuprofen as well as with the compounds. U87 is a human primary glioblastoma cell line, formally known as U-87 MG. This cell line has epithelial morphology, and is one of the most frequently used glioblastoma cell lines.
# [3] = system: β-catenin signaling; assay: β-catenin transcriptional activity (TOPflash) in HEK293T cells; type: cell-based; details: 5 μM each; control 1.23±0.11
# [4] = Drug levels in papillomas (HPLC); details: equal dose of PS orally
# [5] = system: skin papillomas; assay: DMBA/TPA-induced skin papillomas in FVB mice; type: in vivo
# Description: This initiation-promotion protocol leads to papillomas by wk 10, and in a fraction of the mice to SCC by wk 20. […] Criteria similar to those used for human papilloma classification were applied to assess disease progression: hyperplasia→papilloma (Pap 1-3)→microinvasive SCC (M1-3)→invasive SCC. On wk 20, the study was terminated.
# [6] = Inhalation versus oral delivery of PS; type: in vivo, mice
# [7] = type: in vivo, mice; details: 55° C. hot plate, 30 min after single i.p. dose; 100 mg/kg, PI-PEG 1,600 mg/kg; control 1.91 ± 0.46
# [8] = Biodistribution of liposomal phospho-ibuprofen amide in mice; type: in vivo
# [9] = system: A549 human non-small lung cancer cells; assay: Orthotopic A549 lung tumor model in nude mice; type: in vivo
# [10] = system: AGS human gastric cancer cells; type: in vivo, mice; details: i.p. in corn oil, 3 weeks; PSA-B 200, PSA-G 200, PIA-B 160, PVA-T 100 mg/kg
# [11] = system: A431 human squamous cell carcinoma cells; type: in vivo, mice; details: hydrogel, topical, 2 weeks, estimated 80 mg/kg
# [12] = 200 mg/kg once a week for 8 weeks
compound,measurement,setting,value
CCOP(=O)(OCC)OCCCCOC(=O)CC1=C(C)/C(=C/c2ccc([S+](C)[O-])cc2)c2ccc(F)cc21 (centres unmarked) [PS 118],AUC(0-t),[1],684 µM·h
same,Cmax,[1],36.1 µM
same,Tmax,[1],2 h
same,IC50,[2],114 µM
same,luciferase/renilla activity,[3],0.76±0.03
same,level of PS in papillomas,[4],0.3 ± 0.2 nmol/g
same,"papilloma multiplicity, oral administration",[5]; oral,failed to reduce papilloma multiplicity
same,reduction of tumor burden (average tumor volume/mouse),[5]; topical,~90%
same,thickness of the epidermis,[5]; topical,partial effect
same,reduction of tumor number (papillomas/mouse),[5]; topical application,merely stabilized disease progression
same,PS levels in plasma,[6]; inhalation and oral,undetectable
same,level of intact PS in lungs,[6]; inhalational 6.5 mg/kg,> 20 nmol/g
same,"total drug levels in lungs, inhalation vs oral","[6]; mouse, in vivo, po",significantly higher compared to those by oral administration
same,level of intact PS in lungs,[6]; oral 150 mg/kg,< 2 nmol/g
same,latency values (mean±SD),[7],4.55 ± 1.00 s
"CCOP(=O)(OCC)OCCCCNC(=O)C(C)c1ccc(CC(C)C)cc1 (centres unmarked) [Phospho-ibuprofen amide 105, Phosphoric acid diethyl ester 4-[2-(4-isobutyl-phenyl)-propionylamino]-butyl ester]",blood and tissue levels of intact compound,[8]; compared with corresponding carboxylic ester compound,significant blood and tissue levels of intact compound
same,biodistribution in major organs,"[8]; liposomal, single 200 mg/kg i.v., 1 h",preferentially accumulated in lungs
same,reduction based on lung tumor weight / lung weight,[9]; [12],80%
same,reduction of lung cancer based on fluorescence,[9]; [12],95%
same,lung cancer on fluorescence images of lungs,"[9]; liposomal, I.V.",essentially eliminated lung cancer
same,tumor growth inhibition,[10],33.8%
same,tumor growth inhibition,[11],51.5%
same,latency values (mean±SD),[7],3.80 ± 0.46 s
